From patent US12617777B2, “GPR84 antagonists and uses thereof” (Liminal BioSciences Limited, priority 2021, dated 2026)

Biological target: T1, human GPR84 receptor (Homo sapiens, UniProt Q9NQS5)
T1 construct: host or cells: HEK293, transient transfection
Experiment: Gαi biosensor BRET assay in HEK293 cells (antagonism of ZQ-16)
Format: cell-based
Settings: for inhibition at 2 µM: HEK293, single concentration 2 μM (designated A); for IC50: HEK293 cells, antagonism of 200 nmol/L ZQ-16; for inhibition at 10 µM: HEK293, single concentration 10 μM (designated F); for inhibition at 25 µM: HEK293, single concentration 25 μM (designated I)
How it was run: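 HEK293 cells transiently expressing human GPR84, Gαi2-Rluc8, GFP10-Gγ2 and Gβ1, in Tyrode's buffer pH 7.5. Compounds preincubated 5 min at 37° C, then 200 nmol/L ZQ-16 for 5 min at room temperature; coelenterazine 400A 5 μmol/L. BRET2 acceptor/donor ratio, background- and vehicle-corrected net BRET.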

T1 sequence (Q9NQS5 whole entry): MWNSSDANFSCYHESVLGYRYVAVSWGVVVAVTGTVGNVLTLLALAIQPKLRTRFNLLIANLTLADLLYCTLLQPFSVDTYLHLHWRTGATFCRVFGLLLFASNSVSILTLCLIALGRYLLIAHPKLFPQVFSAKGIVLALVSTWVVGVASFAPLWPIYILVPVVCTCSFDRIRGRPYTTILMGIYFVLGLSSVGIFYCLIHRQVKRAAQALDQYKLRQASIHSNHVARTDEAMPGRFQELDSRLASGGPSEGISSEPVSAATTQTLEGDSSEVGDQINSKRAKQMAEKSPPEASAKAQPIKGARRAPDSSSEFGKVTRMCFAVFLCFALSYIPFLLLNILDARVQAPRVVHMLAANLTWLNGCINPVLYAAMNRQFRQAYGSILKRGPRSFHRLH

SMILES: FC(F)(F)Cc1cc(N2CCN(Cc3ccccn3)CC2)ccc1-c1cn(C[C@H]2CCCCO2)nn1 [Compound I-746]
- inhibition at 2 µM: > 75%
- IC50: ≤ 0.3 µM

SMILES: Cc1cc(C#CC2CC2)ccc1-c1cn(CC2CCC(C)(C)O2)nn1 (stereo not drawn) [Compound I-164]
- inhibition at 10 µM: > 75%
- IC50: 1 to 3 µM

SMILES: Cc1cc(C#CCN2CCN(c3ccccc3)CC2)ccc1-c1cn(CC2CCCCO2)nn1 (stereo not drawn) [Compound I-867]
- IC50: ≤ 0.3 µM

SMILES: Cc1cc(C#CC2CC2)ccc1-c1cn(CC2OCC3(CC3)CO2)nn1 [Compound I-686]
- inhibition at 10 µM: > 75%
- IC50: 0.3 to 1 µM

SMILES: CC1(C)COC(Cn2cc(-c3ncc(N4CC(C)(CO)C4)cc3OC3CC3)nn2)OC1 [Compound I-703]
- inhibition at 10 µM: > 75%
- IC50: 0.3 to 1 µM

SMILES: Cc1cc(C#CCNC(=O)Oc2ccccc2)ccc1-c1cn(CC2CCCCO2)nn1 (stereo not drawn) [Compound I-619]
- inhibition at 10 µM: > 75%
- IC50: ≤ 0.3 µM

SMILES: Cc1nn(CC2CCCCO2)cc1-c1cccc(C#CC2CC2)c1 (stereo not drawn) [Compound I-323]
- inhibition at 25 µM: ≤ 25%

SMILES: Cc1cc(N2CC3(COC3)C2)ccc1-c1cn(CC2CCCCO2)nn1 (stereo not drawn) [Compound I-113]
- inhibition at 10 µM: 25 to 50%

SMILES: C(#CC1CC1)c1ccc2c(c1)CCc1nnn(CC3CCCCO3)c1-2 (stereo not drawn) [Compound I-305]
- inhibition at 10 µM: ≤ 25%

SMILES: Cc1cc(C#CC2CC2)cnc1-c1cn(Cc2ncccn2)nn1 [Compound I-453]
- inhibition at 10 µM: ≤ 25%

SMILES: CC(C)Oc1cc(C#CCN2CC(C)(C)C2)cnc1-c1cn(C[C@H]2CCCCO2)nn1 [Compound I-498]
- inhibition at 2 µM: 50 to 75%
- IC50: 0.3 to 1 µM

SMILES: Cc1ccc(-c2cccc(-c3cn(C[C@H]4CCCCO4)nn3)c2)cn1 [Compound I-33]
- inhibition at 25 µM: 25 to 50%

SMILES: Cc1cc(C#CC2CC2)ccc1-c1cn(CC2OCC(F)(F)CO2)nn1 [Compound I-670]
- inhibition at 10 µM: 50 to 75%

SMILES: C(#CC1CC1)c1cnc(-c2cn(C[C@H]3CCCCO3)nn2)c(OC2CC2)c1 [Compound I-701]
- inhibition at 2 µM: > 75%
- IC50: ≤ 0.3 µM

SMILES: Cc1c(-c2ccc(C#CCNc3ccccc3)cc2)nnn1CC1CCCCO1 (stereo not drawn) [Compound I-235]
- inhibition at 10 µM: 25 to 50%

SMILES: CC1(C)CN(c2ccc(-c3cn(CC4CCCCO4)nn3)c(C(F)(F)F)c2)C1 (stereo not drawn) [Compound I-255]
- inhibition at 10 µM: 25 to 50%

SMILES: Cc1cc(Cl)c(N2CC(C)(C)C2)cc1-c1cn(C[C@H]2CCCCO2)nn1 [Compound I-431]
- inhibition at 10 µM: ≤ 25%

SMILES: CC(C)OCC1(C)CN(c2ccc(-c3cn(CC4OCC(C)(C)CO4)nn3)c(N(C)C)c2)C1 [Compound I-754]
- inhibition at 10 µM: > 75%
- IC50: 0.3 to 1 µM

SMILES: CC1(CO)CN(c2ccc(-c3cn(CC4OCC5(CCC5)O4)nn3)c(OC3CC3)c2)C1 (stereo not drawn) [Compound I-810]
- inhibition at 10 µM: > 75%
- IC50: 0.3 to 1 µM

SMILES: COC1CCN(c2ccc(-c3cn(CC4CCCCO4)nn3)c(C)c2)CC1 (stereo not drawn) [Compound I-437]
- inhibition at 10 µM: 25 to 50%

SMILES: COCC1(C)CN(c2ccc(-c3cn(CC4OCC(C)(C)CO4)nn3)c(N(C)C)c2)C1 [Compound I-706]
- inhibition at 10 µM: > 75%
- IC50: 0.3 to 1 µM

SMILES: Cc1cc(N2CCN(Cc3ccccn3)CC2)ccc1-c1cncn1CC1OCC(C)(C)CO1 [Compound I-683]
- inhibition at 10 µM: ≤ 25%

SMILES: Cc1ccc(-c2ccc(-c3cn(C[C@H]4CCCO4)nn3)cc2)cn1 [Compound I-31]
- inhibition at 25 µM: ≤ 25%

SMILES: CCc1cc(C#CCOC)ccc1-c1cn(CC2OCC(C)(C)CO2)nn1 [Compound I-770]
- IC50: ≤ 0.3 µM

SMILES: CC(=O)N1CCOCC1Cn1cc(-c2ccc(C#CC3CC3)cc2C)nn1 (stereo not drawn) [Compound I-99]
- inhibition at 10 µM: ≤ 25%

SMILES: Cc1cc(NC(=O)C2CC2)ccc1-c1cn(CC2CCCCO2)nn1 (stereo not drawn) [Compound I-109]
- inhibition at 10 µM: 25 to 50%

SMILES: COCC#Cc1cnc(-c2cn(CC3OCC(C)(C)CO3)nn2)c(OC(C)C)c1 [Compound I-837]
- inhibition at 10 µM: ≤ 25%

SMILES: CN(C)CC#Cc1ccc(-c2cn(CC3CCCCO3)nn2)cc1 (stereo not drawn) [Compound I-47]
- inhibition at 25 µM: ≤ 25%

SMILES: NC(=O)c1cc(C#CC2CC2)ccc1-c1cn(CC2CCCCO2)nn1 (stereo not drawn) [Compound I-234]
- inhibition at 10 µM: ≤ 25%

SMILES: Cc1cc2ccc(N3CC(C)(C)C3)cc2nc1-c1cn(CC2CCCCO2)nn1 (stereo not drawn) [Compound I-622]
- inhibition at 2 µM: ≤ 25%

SMILES: Cc1cc(C#CCN2CC(C)(C)C2)cnc1-c1cn(Cc2ncccn2)nn1 [Compound I-473]
- inhibition at 10 µM: ≤ 25%

SMILES: CC1(C)CN(c2ccc(-c3cn(CC4CCCCO4)nn3)c(F)c2)C1 (stereo not drawn) [Compound I-379]
- inhibition at 10 µM: > 75%

SMILES: Cc1cc(N2CCC3(CC2)CN(Cc2ccccn2)C3)ccc1-c1cn(CC2CCCCO2)nn1 (stereo not drawn) [Compound I-521]
- inhibition at 10 µM: ≤ 25%

SMILES: CC1(C)CN(CC#Cc2cnc(-c3cn(CC4OCC5(CC5)CO4)nn3)c(OC3CC3)c2)C1 [Compound I-794]
- inhibition at 2 µM: > 75%
- IC50: ≤ 0.3 µM

SMILES: CC(C)OCC#Cc1cnc(-c2cn(CC3OCC(C)(C)CO3)nn2)c(OC(C)C)c1 [Compound I-846]
- inhibition at 10 µM: ≤ 25%

SMILES: Cc1ccc(-c2ccc(-c3ncn(CC4CCCCO4)c3C)cc2)cn1 (stereo not drawn) [Compound I-340]
- inhibition at 10 µM: 25 to 50%

SMILES: Cc1c(C#CC2CC2)cccc1-c1nnn(CC2CCCCO2)n1 (stereo not drawn) [Compound I-8]
- inhibition at 25 µM: ≤ 25%

SMILES: Cc1cc(C#CC2CC2)ccc1-c1cn(CC2CCC(F)(F)CO2)nn1 (stereo not drawn) [Compound I-207]
- inhibition at 10 µM: 50 to 75%

SMILES: CC1(C)COC(Cn2cc(-c3ncc(C#CC4CC4)cc3C(F)F)nn2)OC1 [Compound I-736]
- inhibition at 10 µM: ≤ 25%

SMILES: Cc1cc(N2CC3(CCCN3C)C2)ccc1-c1cn(CC2CCCCO2)nn1 (stereo not drawn) [Compound I-148]
- inhibition at 10 µM: 50 to 75%

SMILES: Cc1ccc(C#CCNc2ccccc2)cc1-c1cn(CC2CCCCO2)nn1 (stereo not drawn) [Compound I-178]
- inhibition at 10 µM: ≤ 25%

SMILES: CCc1cc(N2CC(C)(CO)C2)cnc1-c1cn(CC2CC(C)(C)CO2)nn1 (stereo not drawn) [Compound I-500]
- inhibition at 10 µM: > 75%
- IC50: 1 to 3 µM

SMILES: CC1(C)COC(Cn2cc(-c3ncc(C#CC4CC4)cc3CC(F)(F)F)nn2)OC1 [Compound I-750]
- inhibition at 10 µM: > 75%
- IC50: ≤ 0.3 µM

SMILES: C(#CC1CC1)c1ccc(-c2cn(CC3OCC4(CCC4)O3)nn2)c(OC2CC2)c1 (stereo not drawn) [Compound I-798]
- inhibition at 10 µM: > 75%

SMILES: COC(c1cn(CC2CCCCO2)nn1)c1cc(C#CC(C)(C)O)ccc1F (stereo not drawn) [Compound I-632]
- inhibition at 10 µM: ≤ 25%

SMILES: CCc1cc(C#CC2CC2)cnc1-c1cn(CC2OCC(C)(C)O2)nn1 (stereo not drawn) [Compound I-602]
- inhibition at 10 µM: ≤ 25%

SMILES: Cc1ccc(C#CC2CC2)cc1-c1noc(CC2CCCCO2)n1 (stereo not drawn) [Compound I-625]
- inhibition at 10 µM: 50 to 75%

SMILES: Cc1cc(C#CC2CC2)ccc1-c1cn(CC(C)Oc2ccccc2)nn1 (stereo not drawn) [Compound I-72]
- inhibition at 25 µM: ≤ 25%

SMILES: Cc1cc(C#CC2CC2)ccc1-c1nn(CC2CCCCO2)c(=O)o1 (stereo not drawn) [Compound I-15]
- inhibition at 10 µM: ≤ 25%

SMILES: Cc1cc(C#CC2CC2)cnc1-c1cn(CC2OCC(c3ccccc3)CO2)nn1 (stereo not drawn) [Compound I-705]
- inhibition at 10 µM: ≤ 25%

SMILES: Cc1ccc(C#CC2CC2)cc1C(=O)c1cn(CC2CCCCO2)nn1 (stereo not drawn) [Compound I-591]
- inhibition at 10 µM: > 75%
- IC50: 0.3 to 1 µM

SMILES: CN(C)c1cc(C#CC(C)(C)O)ccc1-c1cn(CC2OCC(C)(C)CO2)nn1 [Compound I-719]
- inhibition at 10 µM: > 75%
- IC50: 1 to 3 µM

SMILES: CC(O)(c1cccc(C#CC2CC2)c1)c1cn(CC2CCCCO2)nn1 (stereo not drawn) [Compound I-496]
- inhibition at 10 µM: 25 to 50%

SMILES: Cc1cc(N2CC(N(C)Cc3ccccc3)C2)ccc1-c1cn(CC2CCCCO2)nn1 (stereo not drawn) [Compound I-185]
- inhibition at 10 µM: ≤ 25%
